Experimental data published in PubChem BioAssay (NCI).
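Here, GI50 denotes the concentration required for 50% inhibition of growth. Definition used: TGI = concentration required for complete inhibition of growth.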

Tests used:
Assay in all cases: growth of human tumour cells (NCI), 384-well format
[1] = tested on: SK-OV-3 ovarian
[2] = tested on: UACC-257 melanoma
[3] = tested on: K-562 leukemia
[4] = tested on: CCRF-CEM leukemia
[5] = tested on: OVCAR-5 ovarian
[6] = tested on: EKVX NSCLC
[7] = tested on: KM12 colon
[8] = tested on: NCI-H23 lung
[9] = tested on: MOLT-4 leukemia
[10] = tested on: NCI-H226 lung
[11] = tested on: HT29 colon
[12] = tested on: COLO 205 colon
[13] = tested on: SW-620 colon
[14] = tested on: HL-60(TB) leukemia
[15] = tested on: SK-MEL-5 melanoma
[16] = tested on: OVCAR-4 ovarian
[17] = tested on: SF-539 CNS
[18] = tested on: SN12C renal
[19] = tested on: MDA-MB-231 breast
[20] = tested on: OVCAR-3 ovarian
[21] = tested on: SNB-19 CNS
[22] = tested on: SK-MEL-28 melanoma
[23] = tested on: SF-295 CNS
[24] = tested on: CAKI-1 renal
[25] = tested on: 786-0 renal
[26] = tested on: DU-145 prostate
[27] = tested on: NCI/ADR-RES ovarian
[28] = tested on: IGROV1 ovarian
[29] = tested on: UACC-62 melanoma
[30] = tested on: MCF7 breast
[31] = tested on: HCC-2998 colon
[32] = tested on: HS 578T breast
[33] = tested on: NCI-H460 NSCLC
[34] = tested on: MALME-3M melanoma
[35] = tested on: BT-549 breast
[36] = tested on: TK-10 renal
[37] = tested on: NCI-H522 lung
[38] = tested on: A549 NSCLC
[39] = tested on: SF-268 CNS
[40] = tested on: LOX IMVI melanoma
[41] = tested on: MDA-MB-468 breast
[42] = tested on: HOP-62 NSCLC
[43] = tested on: M14 melanoma
[44] = tested on: NCI-H322M lung
[45] = tested on: U251 glioblastoma
[46] = tested on: SK-MEL-2 melanoma
[47] = tested on: SNB-75 CNS
[48] = tested on: MDA-MB-435 melanoma
[49] = tested on: ACHN renal
[50] = tested on: RPMI-8226 leukemia
[51] = tested on: OVCAR-8 ovarian
[52] = tested on: A498 renal
[53] = tested on: PC-3 prostate
[54] = tested on: RXF 393 renal
[55] = tested on: UO-31 renal
[56] = tested on: HCT-15 colon
[57] = tested on: T-47D breast
[58] = tested on: HOP-92 NSCLC
[59] = tested on: HCT-116 colon
[60] = tested on: SR leukemia

SMILES: Cc1ccccc1C(C(=O)NC1CCCCC1)N(C(=O)CNc1ncccc1F)c1cccc(F)c1 (stereo not drawn)
- GI50 [1]: > 100 µM
- TGI [1]: > 100 µM
- GI50 [2]: > 100 µM
- TGI [2]: > 100 µM
- GI50 [3]: > 100 µM
- TGI [3]: > 100 µM
- GI50 [4]: > 100 µM
- TGI [4]: > 100 µM
- GI50 [5]: > 100 µM
- TGI [5]: > 100 µM
- GI50 [6]: > 100 µM
- TGI [6]: > 100 µM
- GI50 [7]: > 100 µM
- TGI [7]: > 100 µM
- GI50 [8]: > 100 µM
- TGI [8]: > 100 µM
- GI50 [9]: > 100 µM
- TGI [9]: > 100 µM
- GI50 [10]: > 100 µM
- TGI [10]: > 100 µM
- GI50 [11]: > 100 µM
- TGI [11]: > 100 µM
- GI50 [12]: > 100 µM
- TGI [12]: > 100 µM
- GI50 [13]: > 100 µM
- TGI [13]: > 100 µM
- GI50 [14]: > 100 µM
- TGI [14]: > 100 µM
- GI50 [15]: > 100 µM
- TGI [15]: > 100 µM
- GI50 [16]: > 100 µM
- TGI [16]: > 100 µM
- GI50 [17]: > 100 µM
- TGI [17]: > 100 µM
- GI50 [18]: > 100 µM
- TGI [18]: > 100 µM
- GI50 [19]: > 100 µM
- TGI [19]: > 100 µM
- GI50 [20]: > 100 µM
- TGI [20]: > 100 µM
- GI50 [21]: > 100 µM
- TGI [21]: > 100 µM
- GI50 [22]: > 100 µM
- TGI [22]: > 100 µM
- GI50 [23]: > 100 µM
- TGI [23]: > 100 µM
- GI50 [24]: > 100 µM
- TGI [24]: > 100 µM
- GI50 [25]: > 100 µM
- TGI [25]: > 100 µM
- GI50 [26]: > 100 µM
- TGI [26]: > 100 µM
- GI50 [27]: > 100 µM
- TGI [27]: > 100 µM
- GI50 [28]: > 100 µM
- TGI [28]: > 100 µM
- GI50 [29]: > 100 µM
- TGI [29]: > 100 µM
- GI50 [30]: > 100 µM
- TGI [30]: > 100 µM
- GI50 [31]: > 100 µM
- TGI [31]: > 100 µM
- GI50 [32]: > 100 µM
- TGI [32]: > 100 µM
- GI50 [33]: > 100 µM
- TGI [33]: > 100 µM
- GI50 [34]: > 100 µM
- TGI [34]: > 100 µM
- GI50 [35]: > 100 µM
- TGI [35]: > 100 µM
- GI50 [36]: > 100 µM
- TGI [36]: > 100 µM
- GI50 [37]: > 100 µM
- TGI [37]: > 100 µM
- GI50 [38]: > 100 µM
- TGI [38]: > 100 µM
- GI50 [39]: > 100 µM
- TGI [39]: > 100 µM
- GI50 [40]: > 100 µM
- TGI [40]: > 100 µM
- GI50 [41]: > 100 µM
- TGI [41]: > 100 µM
- GI50 [42]: > 100 µM
- TGI [42]: > 100 µM
- GI50 [43]: > 100 µM
- TGI [43]: > 100 µM
- GI50 [44]: > 100 µM
- TGI [44]: > 100 µM
- GI50 [45]: > 100 µM
- TGI [45]: > 100 µM
- GI50 [46]: > 100 µM
- TGI [46]: > 100 µM
- GI50 [47]: > 100 µM
- TGI [47]: > 100 µM
- GI50 [48]: > 100 µM
- TGI [48]: > 100 µM
- GI50 [49]: > 100 µM
- TGI [49]: > 100 µM
- GI50 [50]: > 100 µM
- TGI [50]: > 100 µM
- GI50 [51]: > 100 µM
- TGI [51]: > 100 µM
- GI50 [52]: > 100 µM
- TGI [52]: > 100 µM
- GI50 [53]: > 100 µM
- TGI [53]: > 100 µM
- GI50 [54]: > 100 µM
- TGI [54]: > 100 µM
- GI50 [55]: > 100 µM
- TGI [55]: > 100 µM
- GI50 [56]: > 100 µM
- TGI [56]: > 100 µM
- GI50 [57]: > 100 µM
- TGI [57]: > 100 µM
- GI50 [58]: > 100 µM
- TGI [58]: > 100 µM
- GI50 [59]: > 100 µM
- TGI [59]: > 100 µM

SMILES: Cc1sc2c(c1C)C(c1ccc(Cl)cc1)=N[C@@H](CC(=O)NCCCN1CCN(C)CC1)c1nnc(C)n1-2
- GI50 [1]: 0.208 µM
- TGI [1]: > 100 µM
- GI50 [2]: 0.985 µM
- TGI [2]: 21.9 µM
- GI50 [3]: 0.154 µM
- TGI [3]: > 100 µM
- GI50 [5]: 0.666 µM
- TGI [5]: > 100 µM
- GI50 [6]: 31.5 µM
- TGI [6]: > 100 µM
- GI50 [7]: 56 µM
- TGI [7]: > 100 µM
- GI50 [8]: 0.308 µM
- TGI [8]: 56.9 µM
- GI50 [9]: 0.105 µM
- TGI [9]: 10.6 µM
- GI50 [10]: 1.52 µM
- TGI [10]: > 100 µM
- GI50 [11]: 0.143 µM
- TGI [11]: > 100 µM
- GI50 [12]: 0.257 µM
- TGI [12]: > 100 µM
- GI50 [13]: 23.3 µM
- TGI [13]: > 100 µM
- GI50 [14]: 0.0128 µM
- TGI [14]: 0.027 µM
- GI50 [15]: 0.462 µM
- TGI [15]: 37.9 µM
- GI50 [16]: 0.148 µM
- TGI [16]: 1.63 µM
- GI50 [17]: 0.312 µM
- TGI [17]: 26.9 µM
- GI50 [18]: > 100 µM
- TGI [18]: > 100 µM
- GI50 [19]: 0.0674 µM
- TGI [19]: > 100 µM
- GI50 [20]: 0.148 µM
- TGI [20]: > 100 µM
- GI50 [21]: > 100 µM
- TGI [21]: > 100 µM
- GI50 [22]: 10.1 µM
- TGI [22]: > 100 µM
- GI50 [23]: 7.3 µM
- TGI [23]: > 100 µM
- GI50 [24]: 0.677 µM
- TGI [24]: > 100 µM
- GI50 [25]: 1.79 µM
- TGI [25]: > 100 µM
- GI50 [26]: 7.16 µM
- TGI [26]: > 100 µM
- GI50 [28]: 0.277 µM
- TGI [28]: > 100 µM
- GI50 [29]: 0.0538 µM
- TGI [29]: > 100 µM
- GI50 [30]: 0.0242 µM
- TGI [30]: 4.88 µM
- GI50 [32]: 0.0381 µM
- TGI [32]: 11.4 µM
- GI50 [33]: 0.453 µM
- TGI [33]: > 100 µM
- GI50 [34]: 0.33 µM
- TGI [34]: 26.4 µM
- GI50 [35]: 0.238 µM
- TGI [35]: 11.4 µM
- GI50 [36]: 1.19 µM
- TGI [36]: > 100 µM
- GI50 [37]: 0.0316 µM
- TGI [37]: 0.352 µM
- GI50 [60]: 0.0711 µM
- TGI [60]: > 100 µM
- GI50 [38]: 0.854 µM
- TGI [38]: > 100 µM
- GI50 [39]: 12 µM
- TGI [39]: > 100 µM
- GI50 [41]: 0.0484 µM
- TGI [41]: 0.729 µM
- GI50 [42]: 0.448 µM
- TGI [42]: > 100 µM
- GI50 [43]: 0.404 µM
- TGI [43]: > 100 µM
- GI50 [44]: 0.226 µM
- TGI [44]: > 100 µM
- GI50 [45]: 2.49 µM
- TGI [45]: > 100 µM
- GI50 [46]: 0.0366 µM
- TGI [46]: 24.5 µM
- GI50 [47]: 0.443 µM
- TGI [47]: > 100 µM
- GI50 [48]: 1.33 µM
- TGI [48]: > 100 µM
- GI50 [49]: 10.2 µM
- TGI [49]: > 100 µM
- GI50 [51]: 1.21 µM
- TGI [51]: > 100 µM
- GI50 [52]: 3.31 µM
- TGI [52]: > 100 µM
- GI50 [53]: 0.583 µM
- TGI [53]: > 100 µM
- GI50 [54]: 0.338 µM
- TGI [54]: 2.9 µM
- GI50 [55]: 30.2 µM
- TGI [55]: > 100 µM
- GI50 [56]: 13 µM
- TGI [56]: > 100 µM
- GI50 [57]: 0.529 µM
- TGI [57]: 71.6 µM
- GI50 [58]: 0.486 µM
- TGI [58]: > 100 µM
- GI50 [59]: 0.407 µM
- TGI [59]: > 100 µM
